Data from PubChem BioAssay AID179 (DTP/NCI, 2004).
Several values for one entry are separate records, joined by “and”; a condition that tells them apart may be missing. Identical values can stand only once. Activity calls are given as the source filed them.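 Rule for the calls: active = compounds giving half or more protection of infected cells from virus-caused growth loss, again on retest; inactive = the rest.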

Test system: CEM cells HIV-1 protection, formazan growth assay
Test: NCI AIDS Antiviral Assay
Conditions: for IC50: measured here: growth of uninfected CEM cells
Outline: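 Protection of CEM cells against HIV-1 measured as cell growth via soluble formazan read-out, with five concentrations tested on both infected and uninfected cells; failure to protect may reflect toxicity.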

Row | Compound | EC50 | IC50 | outcome
1 | COc1ccc(N2C(=O)C3c4[nH]c5ccc(OCc6ccccc6)cc5c4C4CCC(C(C)(C)C)CC4C3C2=O)cc1 (stereo not drawn) | > 200 µM | 16.6 µM | –
2 | Cc1ccc(CN2CC(=O)N3Cc4ccccc4CN3C(=O)C2)cc1 | – | – | inactive
3 | CNC(=O)[C@H](Cc1ccccc1)NC(=O)N(CCC#N)CCN(C(=O)N[C@@H](Cc1ccccc1)C(=O)OC)c1ccccc1 | > 200 µM | > 200 µM | –
4 | O=C(NC(=Nc1ccccc1)SCSC(=Nc1ccccc1)NC(=O)c1ccccc1F)c1ccccc1F | > 200 µM | 28.8 µM | –
5 | CCn1c(SCC(=O)N/N=C/c2ccccc2)nc2ccccc2c1=O | > 200 µM | 23.4 µM | –
6 | O=C1CCC2CN3CCc4c([nH]c5ccccc45)C3CC2C1 (stereo not drawn) | > 45.7 µM | – | –
7 | Cc1cc(C(C)C)cc(O)c(=O)c1 | – | – | inactive
8 | [N-]=[N+]=Nc1cccc(-c2n[nH]c(Cl)cc2=O)c1 | > 200 µM | > 200 µM | –
9 | [Cl][Cu+].[NH-]C(Cc1c[nH]cn1)C(=O)O (stereo not drawn) | > 46.8 µM | 26.9 µM | –
10 | Cc1ccc(NC(=O)/C(=N\NC(N)=O)c2c(O)c3ccccc3[nH]c2=O)cc1 | > 95.5 µM | > 95.5 µM | –
11 | Nc1nc2c(ncn2C2CCC(CO)OC2)c(=O)[nH]1 (stereo not drawn) | 145 µM | > 200 µM | –
12 | CCOC(=O)C1=C(O)c2ccccc2S(=O)(=O)N1C (tested in a mixture with another compound) | > 123 µM | 110 µM | –
13 | CCOc1cc2c(cc1O)CC[C@@H]1[C@@H]2CC[C@]2(C)C(OS(=O)OC3CC[C@@H]4[C@H]5CCc6cc(O)c(OCC)cc6[C@@H]5CC[C@@]34C)CC[C@@H]12 (stereo partly drawn) | > 2 µM | 0.537 µM | –
14 | O=C(N/N=C/c1ccccc1O)c1ccccc1Nc1ccccc1C(=O)N/N=C/c1ccccc1O | > 42.7 µM | 1.82 µM | –
15 | CCOC(=O)C12CCC(c3c(C)cccc3C)(O1)C(C(=O)OC)=C2C(=O)OC (stereo not drawn) | > 200 µM | 107 µM | –
16 | N#Cc1c(Nc2nc3ccccc3s2)c2ccccc2n2c1nc1ccccc12 | > 200 µM | > 200 µM | –
17 | CCOC(=O)c1ccc(CSc2ccc(N)cc2)cc1 | > 457 µM | 240 µM | –
18 | O=c1c2ccccc2c2c3c1cccc3c1cccc3c(=O)c4ccccc4c2c31 | > 7.08 µM | > 7.08 µM | –
19 | CCOC(=O)/C(=N/Nc1ccc(Cl)cc1)N1C(=S)C=C(C)NN(C)C1=S | > 200 µM | > 200 µM | –
20 | CC1=C2[C@@H](c3ccccc3)C3C=CC2(c2ccccc23)N(C(=O)Nc2cccc3ccccc23)C1=O (stereo partly drawn) | > 5.75 µM | > 5.75 µM | –

Row | Compound | EC50 | IC50 | outcome
21 | O/N=C1/CCCc2nonc21 | > 200 µM | > 200 µM | –
22 | CC1C2CC3(c4ccccc4)CC(/C2=N\O)/C(=N/O)C1/C3=C\O (stereo not drawn) | > 200 µM | > 200 µM | –
23 | CC(C)c1nc2c(Cl)c3ncccc3cc2[nH]c1=O | > 100 µM | 39.8 µM | –
24 | CC(C)(C)C1CCC2c3c([nH]c4ccccc34)C3C(=O)N(c4ccc(Br)cc4)C(=O)C3C2C1 (stereo not drawn) | > 14.5 µM | > 14.5 µM | –
25 | Nc1ccc(/C=C\c2ccc(N)cc2S(=O)(=O)O)c(S(=O)(=O)O)c1 | > 200 µM | > 200 µM | –
26 | CN1C2(c3ccccc3)C(C(=O)c3ccccc3)=C(C(=O)c3ccccc3)C1(c1ccccc1)c1c(-c3ccccc3)sc(-c3ccccc3)c12 | – | – | inactive
27 | O=C(NCc1ccccc1)c1cc2cc(O)c(O)cc2cn1 | > 200 µM | 5.13 µM and > 8.32 µM | –
28 | CC1=C(C(=O)Nc2ccccc2C)C(c2ccccc2C)C(C(=O)Nc2ccccc2C)=C(C)N1 | > 15.5 µM | > 15.5 µM | –
29 | O=C1NS(=O)(=O)c2ccccc21.[Cu+2] | > 1150 µM | 58.9 µM | –
30 | O=C(O)CCC1C(=O)C2CCN1CC2 (stereo not drawn) | > 200 µM | > 200 µM | –
31 | Nc1nc(N)c(-c2ccccc2)c(CCC(=O)Nc2ccc(Cl)cc2)n1 | > 490 µM | 24 µM | –
32 | [O-][n+]1nc2ccccc2c2ccccc21 | > 347 µM | 141 µM | –
33 | C=CCc1ccc(Oc2cc(CC=C)c3c(c2O)O[C@@H](CO)[C@H]3c2ccc(O)c(-c3cc(CC=C)ccc3O)c2)cc1 | > 100 µM | > 100 µM | –
34 | COC1OC(OC)C2C(c3c(C)cc(C)cc3C)=NOC12 (stereo not drawn) | > 234 µM | > 234 µM | –
35 | CCO[C@@H]1OC(=O)[C@H]2C(c3ccccc3)=NO[C@@H]12 | > 275 µM | > 275 µM | –
36 | Cc1ccc(-n2c3nc(=O)n(C)c(=O)c-3nc3ccccc32)c(C)c1 | – | – | inactive
37 | Cc1c(C(=O)C/C(=N\O)C(=O)Nc2cc(Cl)c(Cl)cc2Cl)[n+](=O)c2ccccc2n1[O-] | > 14.8 µM | > 14.8 µM | –
38 | CC1(C)C2C3CCC2C2C[S+]1CC23 | > 162 µM | 107 µM | –
39 | O=[N+]([O-])c1ccc([N+](=O)[O-])c(Cl)c1 | > 200 µM | 3.16 µM | –
40 | C/C(=N/NC(=S)Nc1cccc(Cl)c1)c1ccccn1 | > 0.2 µM | 0.0851 µM | –

Row | Compound | EC50 | IC50 | outcome
41 | O=C([CH-]C(=O)c1ccccc1)c1ccccc1.O=C([CH-]C(=O)c1ccccc1)c1ccccc1.[CH2-]CCC.[CH2-]CCC.[Sn+4] | > 7.76 µM | 0.427 µM | –
42 | CSc1ncc2c(C#N)c3[nH]c4ccccc4n3c(=O)c2n1 | > 200 µM | 6.46 µM | –
43 | Nc1nc(Cl)c2ncn(C3OC(CO)CC3F)c2n1 (stereo not drawn) | > 49 µM | > 49 µM | –
44 | N#CCCC[Si]12OCCN(CCO1)CCO2 | – | – | inactive
45 | O=C1C2C=CC(C2)C(c2ccc(O)cc2)N1O (stereo not drawn) | > 776 µM | > 776 µM | –
46 | CN(C)N(CCO)CCO | > 200 µM | > 200 µM | –
47 | O=c1[nH]nc(NNc2ccccc2)c2nnn(C3CCCCC3)c12 | > 200 µM | 12.6 µM | –
48 | O=C1CS(=O)(=O)C(c2ccc(F)cc2)N1N1C(=O)CS(=O)(=O)C1c1ccc(F)cc1 (stereo not drawn) | > 200 µM | > 200 µM | –
49 | COc1ccc(CCNC(=O)[C@H]2CCCC[C@@H]2CCO)cc1OC | > 200 µM | > 200 µM | –
50 | Cc1cc(N)c2cc(NC(=O)CCCCCCCCC(=O)Nc3ccc4nc(C)cc(N)c4c3)ccc2n1 | – | – | inactive
51 | CC(CC[C@@H](O)C(C)(C)O)C1[C@@H](O)CC2(C)C3CC(O)C4C(C)(C)[C@@H](OC5OC(CO)C(O)C(O)C5O)CC[C@@]45C[C@@]35CC[C@]12C (stereo partly drawn) | > 200 µM | > 200 µM | –
52 | COC(=O)c1ccccc1NC(=O)/C(=N\NC(C)(C)C)C(C#N)c1nc(-c2ccc([N+](=O)[O-])cc2)cs1 (stereo not drawn) | > 69.2 µM | > 69.2 µM | –
53 | CCOC(=O)NN(C(=O)OCC)C(=C(C1=CCCCC1)N1CCOCC1)N(NC(=O)OCC)C(=O)OCC | > 200 µM | > 200 µM | –
54 | C#[N+]CCOP(=O)(OCC1OC(n2cc(C)c(=O)[nH]c2=O)CC1N=[N+]=[N-])O[C@H]1CC[C@@]2(C)C(=CC[C@H]3[C@@H]4CC[C@H](C(C)/C=C/C(CC)C(C)C)[C@@]4(C)CC[C@@H]32)C1 (stereo partly drawn) | 1.62 µM and 5.89 µM | > 200 µM | –
55 | COC(=O)c1c2c(cc3c1CC1(C3)Cc3cc4c(c(C(=O)OC)c3C1)CCCC4)CCCC2 | > 200 µM | > 200 µM | –
56 | CCC1CCC23OOC(C)(CCC2C1)O[C@@H]3OC (stereo partly drawn) | > 49 µM | > 49 µM | –
57 | NC(=O)O/N=C/c1ccccn1 | > 200 µM | > 200 µM | –
58 | NC(N)=N/N=C(\c1nc2ccc([N+](=O)[O-])cc2[nH]c1=O)C(O)c1ccc([N+](=O)[O-])cc1 (stereo not drawn) | > 158 µM | > 158 µM | –
59 | O=C(O)c1c[nH]n2c(=S)ncnc12 | > 871 µM | > 871 µM | –
60 | N#CC(=N)c1ncn(-c2ccc(N)cc2)c1N | > 200 µM | 195 µM | –
